# Source: patent publication US9297012B2, “Methods and compositions for inducing deregulation of EPHA7 and ERK phosphorylation in human acute leukemias” (The Ohio State University Research Foundation, priority 2007, dated 2016)
# Experiments:
# Type in all cases: cell-based, human
# SEMK2 cells [1] = assay: MTT assay, SEMK2; settings: SEMK2, t(4;11); 1 μM; 24, 48 and 72 hr; ratio vs DMSO
# Procedure: (§1) At each time point, the cells were subjected to MTT assay (left), Caspase 3 activity assay (middle) and FACS analysis (right). The results of MTT and Caspase 3 activity assays are calculated as a ratio against the value for DMSO-treated cells. Vertical bar in each column indicates standard deviation determined by triplicate assays.
# (§2) Methods including Recombinant protein expression in K562 and in KG1 cells, RNA interference, Western blot analysis, and MTT assay, Caspase 3 Activity assay and FACS analysis are available in online Supporting Information.
# RS4;11 cells [2] = assay: MTT assay, RS4;11; settings: RS4;11, t(4;11); 1 μM; 24, 48 and 72 hr; ratio vs DMSO
# Procedure: as §1, §2
# 380 cells = assay: MTT assay, 380; settings: 380 control cells lacking ALL1 abnormality; 1 μM; 24, 48 and 72 hr
# Procedure: as §1, §2
# 697 cells = assay: MTT assay, 697; settings: 697 control cells lacking ALL1 abnormality; 1 μM; 24, 48 and 72 hr
# Procedure: as §1, §2
# SEMK2 cells [3] = assay: Caspase 3 activity assay, SEMK2; settings: 1 μM, 24 hr, ratio vs DMSO
# Procedure: as §1
# (§3) To determine the cause for the reduction in cell numbers, the 5-ITU-treated cells were subjected to assays determining apoptotic cell death (caspase 3 activity assay and FACS analysis).
# as §2
# RS4;11 cells [4] = assay: Caspase 3 activity assay, RS4;11; settings: 1 μM, 24 hr, ratio vs DMSO
# Procedure: as §1, §3, §2
# SEMK2 cells [5] = assay: FACS analysis (subG1), SEMK2; settings: 1 μM
# Procedure: as §1, §3, §2
# RS4;11 cells [6] = assay: FACS analysis (subG1), RS4;11; settings: 1 μM
# Procedure: as §1, §3, §2
structure (smiles),measurement,setting,value
"Nc1ncnc2c1c(I)cn2[C@@H]1O[C@H](CO)[C@@H](O)[C@H]1O [5-ITU, 5-iodotubercidin]",cell number (MTT assay),SEMK2 cells [1],reduction in numbers
same,cell number (MTT assay),RS4;11 cells [2],reduction in numbers
same,cell number (MTT assay),380 cells,no diminution in the number
same,cell number (MTT assay),697 cells,no diminution in the number
same,caspase 3 activity,SEMK2 cells [3],Increased caspase 3 activity
same,caspase 3 activity,RS4;11 cells [4],Increased caspase 3 activity
same,cells at the subG1 phase (FACS),SEMK2 cells [5],high proportion
same,cells at the subG1 phase (FACS),RS4;11 cells [6],high proportion
